Results as given in US12194201B2, “Silica nanoparticle doped conductive polymer” (University of Pittsburgh—Of the Commonwealth System of …, priority 2019, dated 2025).
One block for each molecule: values may come before it.

Tests used:
[1] = Electrically controlled dye loading and release from PEDOT/SNP films in PBS; type: physicochemical
Excerpt: Drug loading and release from conducting polymers with electrical control offers a precise method for pharmacological delivery directly to the site of implantation on demand. Mesoporous SNP were employed for drug delivery due to their exceptionally high loading volume. Rhodamine and fluorescein were used as model drugs for quantifying drug release profile. Fluorescein has a negative charge while rhodamine-b is positively charged, and the combination of rhodamine and fluorescein allow for a better understanding of how oppositely charged compounds can be released from PEDOT/SNP films. The drug loading and release mechanism is depicted in FIG. 2. Nanoparticles were suspended in an aqueous solution of fluorescein, rhodamine, or a combination of both, and sonicated to encourage the entry of the dye into the pores. Loaded sulfonate nanoparticles are then collected from solution by centrifuge then resuspended in an aqueous solution of EDOT. PEDOT/SNP films are polymerized under constant current, producing a film of polymer gated silica nanoparticles. An immediate observation made was the ease of polymerization when the dye was loaded into SNPs prior to polymerization vs without SNPs, with electrode potential being substantially lower for electro-polymerization of drug loaded SNP (FIG. 11). After polymerization, electrodes coated with the dye-loaded composite were examined under a fluorescent microscope to observe the release in phosphate buffered saline (PBS) in real time (FIG. 12). A cyclic voltage sweep from 0.8V to −0.6V was used to trigger drug release from the coatings. We observed a halo of fluorescence surrounding the electrode upon stimulation, which dissipates within seconds of the end of stimulation.
We further quantified the amount of release over number of stimuli from PEDOT/SNP composite and compared the performance to a control group of PEDOT loaded with the dye directly without the mesoporous SNP. Control and SNP dopant groups were polymerized to the same charge density. […]

[2] = Dox release from PEDOT/SNP film into serum free DMEM; type: physicochemical
Experimental: (§1) Electrochemical methods of drug release may alter the activity of a compound due to the applied potentials, and it is therefore important to verify that the loading and release process doesn't compromise the drug's bioactivity. […] For Dox, a potent chemotherapeutic, release was performed for 0 (passive diffusion for 24 hours), 20, or 200 cycles into serum free DMEM. A small amount of diffusion release was observed from Dox loaded electrodes, as measured by absorbance at […]. […] Released Dox was introduced to cultured 3T3 mouse fibroblast cells (FIG. 7B) and the toxicity was compared to freshly prepared Dox solution at the same concentration. After a 3-day incubation period, the viability of the 3T3 cells was evaluated with the XTT assay. […] Therefore, even though we detected a minute amount of Dox in the diffusion control, this quantity is below the toxic level.
5 mg of mesoporous SNP were sonicated with 200 μl of drug solution for 20 minutes prior to the particles being collected by centrifuge and dried under vacuum.
5 mg of drug loaded particles were suspended in 3 ml of EDOT (0.01M) solution in water. Electropolymerization was carried out for 200 seconds on 2 mm diameter gold electrodes or 70 μm diameter Pt/Ir wires (A-M systems, 90/10 Pt/Ir). Electrodes were then washed with PBS on an orbital shaker for 2 hours then soaked overnight to remove any adsorbed drugs.

[3] = system: 3T3 mouse fibroblast cells; assay: 3T3 viability (XTT) after incubation with released Dox; type: cell-based; conditions: 3-day incubation
Experimental: as §1
XTT assay was performed as directed by the distributer. In brief, 2,3-Bis-(2-Methoxy-4-Nitro-5-Sulfophenyl)-2H-Tetrazolium-5-Carboxanilide (XTT, Invitrogen, 1 mg ml^−1) was added to culture media. 10 μl of phenazine methosulfate (PMS, 10 mM) was added to XTT/media solution (4 ml) just prior to the addition of XTT solution (50 uL) per well. Cells were incubated for 3 hours and the absorbance of the supernatant was measured at 450 nm. HAPI cells were imaged with a Live/Dead assay (Invitrogen). Supernatant solution was removed and replaced with 1/1000 dilutions for Propidium Iodide and Calcein AM in PBS. Cells were incubated for 1 hour and imaged with fluorescence microscopy.
Dox was loaded and released from PEDOT/SNP films as described above. 3T3 cells were cultured in 48 well plates for 2 days to reach semi-confluency, at which point the culture media was removed and replaced with serum-free media containing stock dox, released dox, or no dox. Cells were culture for 72 h, at which point the media was aspirated and the viability of the cells measured with XTT assay as described above.

[4] = system: highly aggressive proliferating immortalized (HAPI) microglia cells; assay: Live/Dead staining of cells on polymer substrate; type: cell-based; conditions: 2 days, Triton-X 0.2% positive control on TCPS
Experimental: A cytotoxicity assessment was performed on the PEDOT/SNP composite. Both PEDOT^[51] and silica nanoparticles^[40] have each been successfully employed in in vivo applications. However, small changes to the surface chemistry of the silica nanoparticle warrant investigation into the potential for adverse biological interactions. The commonly employed polymer PEDOT/PSS itself has been previously characterized as non-toxic;^[52] and was used as an ideal reference for the toxicity testing of the PEDOT/SNP. The biocompatibility of the PEDOT/SNP surface was evaluated by directly culturing highly aggressive proliferating immortalized (HAPI) microglia cells on the substrate. After 2 days, XTT was used to measure to metabolic activity of the cells. […] A small degree of auto-fluorescence is detectable for both polymer coatings, resulting in a slight amount of red and green background. […] Given these findings, we can expect that the PEDOT/SNP surface is safe and non-toxic for acute experimentation, while chronic biocompatibility should still be evaluated. […]
XTT assay was performed as directed by the distributer. […] Cells were incubated for 3 hours and the absorbance of the supernatant was measured at 450 nm. […] Cells were incubated for 1 hour and imaged with fluorescence microscopy.

[5] = K3[Fe(CN)6] reduction (Prussian blue) antioxidant assay of released melatonin
Experimental: 1 mL of solution was removed and added to 0.8 mL of water, followed by the addition of 200 μL of FeCl3(0.01%, 6 μM), creating a deep blue dye. The absorbance of the resulting solution was measured at 700 nm.

neural activity = assay: In vivo DNQX release from PEDOT/SNP coated carbon fiber electrode, GCaMP imaging; conditions: DNQX loaded PEDOT/SNP on carbon fiber electrode, reducing potential, GCaMP mouse
Excerpt: Next, we aimed to modulate cellular activity by release of the glutamate AMPA/Kainate receptor antagonist 6,7-dinitroquinoxaiine-2,3-dione (DNQX). DNQX is a small, negatively charged compound that blocks glutamate transmission. We have previously observed that DNQX may be loaded and electrically released from PEDOT/CNT films in vivo and produce a transient (<6 second) inhibition of sensory evoked neural activity recorded in barrel cortex of rats.^[9] In this study, DNQX release from PEDOT/SNP was assessed using a GCaMP mouse model. The GCaMP fluorescence is tied directly to intracellular calcium activity, such that when neurons fire action potentials, the calcium influx cause GCaMP to produce a bright green fluorescence. […]
All animal work was performed under the guidelines of the University of Pittsburgh Institutional Animal Care and Use Committee (IACUC). […] First, a 2-minute baseline was recorded. […] Following 10 cycles of stimulation, a final 2-minute baseline recording was performed Calculations of fluorescence are made by first masking the electrode. A background fluorescence was determined by averaging all frames together, allowing for representation of small time windows as the % change vs the background intensity as shown below.
The inter-pulse fluorescence was determined by Δf during the reducing voltage, and comparing this to the Δf during the prior oxidative voltage (V>−0.2).

[6] = system: sensory evoked neural activity recorded in barrel cortex; conditions: released from PEDOT/CNT films, rat barrel cortex; cited from earlier work

quantified fluorescent intensity during release vs after ([1]; PBS, cyclic voltage sweep 0.8V to −0.6V, dye-loaded PEDOT/SNP): significantly higher
dye release relative to control sample ([1]; over 9,000 (fluorescein) and 5,000 (rhodamine) stimulations, control PEDOT loaded with dye without SNP): substantial increase
Overall drug loading increase when SNP used as a reservoir ([1]; vs PEDOT loaded with the dye directly, same charge density): 16.8 ×
Molecule: CCN(CC)c1ccc2c(-c3ccccc3C(=O)O)c3ccc(=[N+](CC)CC)cc-3oc2c1 [rhodamine, rhodamine-b]

Dox released from PEDOT/SNP film ([2]; 20 stimulations): 1.44 μg cm^−2
Dox released from PEDOT/SNP film ([2]; 200 stimulations): 7.4 μg cm^−2
Molecule: COc1cccc2c1C(=O)c1c(O)c3c(c(O)c1C2=O)C[C@@](O)(C(=O)CO)C[C@@H]3O[C@H]1C[C@H](N)[C@H](O)[C@H](C)O1 [Dox, Doxorubicin]
effect of released Dox vs concentration-matched stock Dox [3]: no difference
3T3 viability vs standard culture media ([3]; diffusion control (0 cycles, passive diffusion 24 hours)): No significant difference
3T3 viability vs control ([3]; released Dox from 20 stimulations): significantly reduced the viability
3T3 viability vs control ([3]; released Dox from 200 stimulations): significantly reduced the viability

Molecule: Triton-X
Live dead staining of the cells on the substrate [4]: no viable cells

Molecule: COc1ccc2[nH]cc(CCNC(C)=O)c2c1 [melatonin]
change in absorbance at 700 nm (antioxidant capacity) ([5]; melatonin released from PEDOT/SNP film): significant change in the absorbance
change in absorbance at 700 nm (antioxidant capacity) ([5]; stock melatonin): significant change in the absorbance

Molecule: 6,7-dinitroquinoxaline-2,3-dione [DNQX]
GCaMP fluorescence intensity during DNQX release vs prior (neural activity): significant decrease
duration of transient inhibition of sensory evoked neural activity [6]: < 6 s
